Counter-ions that a name gives are not always drawn.

The target in the first assay is T1, methionine aminopeptidase-2 (MetAP2) (Homo sapiens, UniProt P50579).
T1 construct: made in house; host or cells: insect cells, baculovirus system (secreted, purified from culture supernatant)
T1 sequence (P50579 whole entry): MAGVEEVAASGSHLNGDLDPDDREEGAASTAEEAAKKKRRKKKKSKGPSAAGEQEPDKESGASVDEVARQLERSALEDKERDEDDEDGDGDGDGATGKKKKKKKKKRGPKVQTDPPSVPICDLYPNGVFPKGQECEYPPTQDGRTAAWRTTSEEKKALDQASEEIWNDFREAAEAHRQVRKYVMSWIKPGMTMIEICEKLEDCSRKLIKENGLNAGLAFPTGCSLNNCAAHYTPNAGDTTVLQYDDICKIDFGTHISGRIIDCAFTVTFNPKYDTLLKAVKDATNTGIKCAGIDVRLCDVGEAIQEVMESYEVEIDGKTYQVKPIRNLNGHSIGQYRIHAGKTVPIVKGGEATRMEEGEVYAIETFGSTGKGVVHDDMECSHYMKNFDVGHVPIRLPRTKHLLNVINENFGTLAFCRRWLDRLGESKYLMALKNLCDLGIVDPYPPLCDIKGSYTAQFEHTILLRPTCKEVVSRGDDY
Description: Inhibition of MetAP2 enzyme activity (96-well, Met-Ala-Ser substrate, L-amino acid oxidase/peroxidase/ortho-dianisidine, 450 nm). The format is biochemical. The note with it: IC50, recombinant MetAP2 4 μg/mL, pH 7.4, Met-Ala-Ser substrate, 20 minutes.
Regarding `N[C@H](CC1CCCCC1)C(O)C(=O)NCc1cccc2ccccc12` (stereo partly drawn) [Example 235, (2RS,3R)-3-amino-4-cyclohexyl-2-hydroxy-N-(1-napthylmethyl)butanamide Hydrochloride], the half-inhibitory concentration (IC50) was 0.97 µM. With `N[C@H](CC1CCCCC1)C(O)C(=O)NC1CCCCC1` (mixture of isomers) [Example 206, (2RS,3R)-3-amino-N,4-dicyclohexyl-2-hydroxybutanamide Hydrochloride], the half-maximal inhibitory concentration (IC50) worked out at 10 µM. Consider `C[C@H](NC(=O)C(O)[C@H](N)CC1CCCCC1)C(=O)NCCCN1CCCC1=O` (stereo partly drawn) [Example 64, ((b 2RS,3R)-3-amino-2-hydroxy-4-cyclohexyl)butanoyl-L-alanyl-(2-pyrrolidinopropyl)amide hydrochloride], for which the IC50 amounted to 19 µM.

As to `Cc1cc(I)ccc1NC(=O)C(O)[C@H](N)CC1CCCCC1` (mixture of isomers) [Example 173, (2RS,3R)-3-amino-4-cyclohexyl-2hydroxy-N-(4-iodo-2-methylphenyl)butanamide hydrochloride], the IC50 is 0.58 µM. Take `Cc1ccc(S(=O)(=O)NCCNC(=O)C(O)[C@H](N)CC2CCCCC2)cc1` (stereo partly drawn) [Example 81, (2RS,3R)-3-amino-2-hydroxy-4-cyclohexyl)butanoyl-(2-4-toluenesulfonylaminoethyl)amide hydrochloride]: the IC50 was 1.8 µM. For `N[C@H](CC1CCCCC1)C(O)C(=O)NCCNc1ccc([N+](=O)[O-])cn1` (stereo partly drawn) [Example 57, (2RS,3R) N-(5-nitropyridyl-2-aminoethyl) 3-amino-2-hydroxy-4-cyclohexyl)butanamide dihydrochloride], the IC50 stood at 3.1 µM. Consider `CCOC(=O)C1CCN(C(=O)[C@H](C)NC(=O)C(O)[C@H](N)CC2CCCCC2)CC1` (stereo partly drawn) [Example 63, ((2RS,3R)-3-amino-2-hydroxy-4-cyclohexyl)butanoyl-L-alanyl-(ethylisonipecotate)amide hydrochloride], for which the half-inhibitory concentration (IC50) was 20 µM. The same measure, in the same setting: the value for `N[C@H](CC1CCCCC1)C(O)C(=O)NCc1cccc(OC(F)(F)F)c1` (mixture of isomers) [Example 236, (2RS,3R)-3-amino-4-cyclohexyl-2-hydroxy-N-(3-(trifluoromethoxy)benzyl)butanamide Hydrochloride] was 1.9 µM; that for `C[C@H](NC(=O)C(O)[C@H](N)CC1CCCCC1)C(=O)Nc1ncc(Br)s1` (stereo partly drawn) [Example 70, ((2RS,3R)-3-amino-2-hydroxy-4-cyclohexyl)butanoyl-L-alanyl-(5-bromothizole-2)amide hydrochloride] was 5.4 µM; that for `Cc1cccc(CNC(=O)C(O)[C@H](N)CC2CCCCC2)c1` (mixture of isomers) [Example 191, (2RS,3R)-3-amino-4-cyclohexyl-2hydroxy-N-(3-methylbenzyl)butanamide hydrochloride] was 2.5 µM. Same read-out and setting: the value for `COc1ccc(CCNC(=O)C(O)[C@H](N)CCSC)cc1` (stereo partly drawn) [Example 27, (2RS,3R)-3-amino-2-hydroxy-N-(4-methoxyphenethyl)-5-(methylthio)pentanamidehydrochloride] was 1.7 µM. As to `COc1ccccc1CCNC(=O)C(O)[C@H](N)CC1CCCCC1` (mixture of isomers) [Example 197, (2RS,3R)-3-amino-4-cyclohexyl-2-hydroxy-N-(2-methoxyphenethyl)butanamide hydrochloride], the concentration for half-maximal inhibition (IC50) is 0.58 µM. The same measure, in the same setting: the value for `N[C@H](CC1CCCCC1)C(O)C(=O)NCCCCNS(=O)(=O)c1cccc(C(F)(F)F)c1` (mixture of isomers) [Example 84, (2RS,3R)-3-amino-4-cyclohexyl-2-hydroxy-N-(4-(((3-(trifluoromethyl)phenyl)sulfonyl)amino)butyl)butanamide hydrochloride] was 3.3 µM; that for `N[C@H](CC1CCCCC1)C(O)C(=O)NCc1ccc(Cl)cc1` (mixture of isomers) [Example 193, (2RS,3R)-3-amino-N-(4-chlorobenzyl)-4-cyclohexyl-2-hydroxybutanamide hydrochloride] was 2.5 µM. On the same count and under the same terms, the value for `CCOC(=O)CCCNC(=O)C(O)[C@H](N)CCSCC` (mixture of isomers) [Example 16, (2RS,3R)-N-(3-(carboethoxy)propyl)-3-amino-2-hydroxy-5-(ethylthio)pentanamide hydrochloride] was 0.78 µM; that for `N[C@H](CC1CCCCC1)C(O)C(=O)NC12CC3CC(CC(C3)C1)C2` (mixture of isomers) [Example 202, (2RS,3R)-N-(1-adamantyl)-3-amino-4-cyclohexyl-2-hydroxybutanamide Hydrochloride] was 8.3 µM. Still for that read-out and setting: the value for `N[C@H](CC1CCCCC1)C(O)C(=O)N[C@@H](CO)C(=O)OCc1ccc([N+](=O)[O-])cc1` (stereo partly drawn) [Example 138, 4-nitrobenzyl (2RS,3R,2'S)-2-((3-amino-4-cyclohexyl-2-hydroxybutanoyl)amino-3-hydroxypropanoate trifluoroacetate] was 1.6 µM; that for `CCOC(=O)[C@H](C)NC(=O)C(O)[C@H](N)Cc1ccccc1` (stereo partly drawn) [Example 26, (2RS,3R,1'S)-N-((1-ethoxycarbonyl)ethyl)-3-amino-2-hydroxy-4-phenyl-butanamide hydrochloride] was 4.7 µM; that for `N[C@H](CC1CCCCC1)C(O)C(=O)Nc1cccc(Cl)c1` (mixture of isomers) [Example 148, (2RS,3R)-3-amino-N-(3-chlorophenyl)-4-cyclohexyl-2-hydroxybutanamide] was 0.52 µM. Turning to `N[C@H](CC1CCCCC1)C(O)C(=O)Nc1cc(Cl)cc(Cl)c1` (mixture of isomers) [Example 112, (2RS,3R)-3-Amino-4-cyclohexyl-N-(3,5-dichlorophenyl)-2-hydroxybutanamide Hydrochloride], the IC50 came to 1.5 µM. Same read-out and setting: the value for `COc1ccc(CCNC(=O)C(O)[C@H](N)CC2CCCCC2)cc1` (mixture of isomers) [Example 195, (2RS,3R)-3-amino-4-cyclohexyl-2-hydroxy-N-(4-methoxyphenethyl)butanamide hydrochloride] was 1.3 µM; that for `N[C@H](CC1CCCCC1)C(O)C(=O)NCc1ccc(Cl)cc1Cl` (stereo partly drawn) [Example 97, (2RS,3R)-3-Amino-4-cyclohexyl)-N-(2,4-dichlorobenzyl)-2-hydroxybutanamide Hydrochloride] was 3 µM. With `N[C@H](CC1CCCCC1)C(O)C(=O)NCCc1cccc(F)c1` (mixture of isomers) [Example 166, (2RS,3R)-3-amino-4-cyclohexyl-N-(3-fluorophenethyl)-2-hydroxybutanamide hydrochloride], the IC50 is 0.59 µM. On the same count and under the same terms, the value for `CCOC(=O)CCNC(=O)C(O)[C@H](N)CC1CCCCC1` (stereo partly drawn) [Example 24, (2RS,3R)-N-(2-(carboethoxy)ethyl)-3-amino-2-hydroxy-4-cyclohexyl-butanamidehydrochloride] was 1 µM; that for `CSCC[C@@H](N)C(O)C(=O)NCCc1ccc(S(N)(=O)=O)cc1` (stereo partly drawn) [Example 9, (2RS,3R)-N-(2-(4-sulfonamidophenyl)ethyl)-3-amino-2-hydroxy-5-(methylthio)pentanamide hydrochloride] was 2.3 µM. The same measure, in the same setting: the value for `CCOC(=O)C1CCN(C(=O)C(O)[C@H](N)CC2CCCCC2)CC1` (stereo partly drawn) [Example 73, ((2RS,3R)-3-amino-2hydroxy-4-cyclohexyl)butanoyl-(ethylisonipecotate)amide hydrochloride] was 6.8 µM; that for `N[C@H](CC1CCCCC1)C(O)C(=O)Nc1ccc2c(c1)OCCO2` (mixture of isomers) [Example 222, (2RS,3R)-3-amino-4-cyclohexyl-N-(2,3-dihydro-1,4-benzodioxin-6-yl)-2-hydroxybutanamide Hydrochloride] was 0.2 µM. Still for that read-out and setting: the value for `N[C@H](CC1CCCCC1)C(O)C(=O)NC1C2CC3CC(C2)CC1C3` (mixture of isomers) [Example 203, (2RS,3R)-N-(2-adamantyl)-3-amino-4-cyclohexyl-2-hydroxybutanamide Hydrochloride] was 4.9 µM; that for `CCOC(=O)[C@H](CO)NC(=O)C(O)[C@H](N)CCSCC` (stereo partly drawn) [Example 36, (2RS,3R)-N-((1-(2-hydroxy)-1-ethoxycarboxyethyl) 3-amino-2-hydroxy-4-ethylthio)pentanamide hydrochloride] was 0.14 µM; that for `C[C@H](NC(=O)C(O)[C@H](N)CC1CCCCC1)C(=O)NCc1nc2ccccc2[nH]1` (stereo partly drawn) [Example 67, ((2RS,3R)-3-amino-2-hydroxy-4-cyclohexyl)butanoyl-L-alanyl-(2-benzimidazolemethyl)amide hydrochloride] was 13 µM.

Consider `CC(=O)OC[C@@H](C)NC(=O)C(O)[C@H](N)CC1CCCCC1` (stereo partly drawn) [Example 52, (2RS,3R,2'R)-N-((2-acetoxypropyl)-3-amino-2-hydroxy-4-cyclohexyl)butanamidehydrochloride], for which the IC50 stood at 6.1 µM. On the same count and under the same terms, the value for `NCCNC(=O)C(O)[C@H](N)CC1CCCCC1` (stereo partly drawn) [Example 83, (2RS,3R)-3-amino-2-hydroxy-4-cyclohexyl)butanoyl-(2-aminoethyl)amide dihydrochloride] was 26 µM; that for `CCNC(=O)[C@H](C)NC(=O)C(O)[C@H](N)CCSC` (stereo partly drawn) [Example 3, (2RS,3R,1'S)-N-((1-Ethylcarboxamido)ethyl)-3-amino-2-hydroxy-5-(methylthio)pentanamide hydrochloride] was 10 µM; that for `CC(C)CC(C)NC(=O)C(O)[C@H](N)CC1CCCCC1` (mixture of isomers) [Example 231, (2RS,3R)-3-amino-4-cyclohexyl-N-(1,3-dimethylbutyl)-2-hydroxybutanamide Hydrochloride] was 2.5 µM. As to `CC(C)(C)OC(=O)CNC(=O)C(O)[C@H](N)CC1CCCCC1` (mixture of isomers) [Example 126, tert-butyl (2RS,3R)-2-((3-amino-4-cyclohexyl-2-hydroxybutanoyl)amino)acetate hydrochloride], the IC50 worked out at 13 µM.

The assay is the same for the next values; noted with them: recombinant MetAP2 4 μg/mL, pH 7.4, Met-Ala-Ser substrate, 20 minutes; read-out: IC50.
Consider `CCSC(C)[C@H](NC(=O)OC(C)(C)C)C(O)C(=O)NC(=O)CCCc1ccccc1` (mixture of isomers) [Example 37, (2RS,3R)-N-((phenylbutyryl)-3-tert-butoxycarbonylamino-2-hydroxy-4-ethylthio)pentanamide], for which the IC50 was determined as 16 µM.

The term IC50 denotes the concentration that inhibits the measured activity by half.

For the origin of these results see patent US6242494A, “Substituted β-amino acid inhibitors of methionine aminopeptidase-2” (Abbott Laboratories, priority 1999, dated 2001).
